Experimental data from US5747320A (The United States of America, as represented by the …, priority 1996, dated 1998).
“Also recorded” adds a separate entry of the source.

What was measured:
[1] = tested on: purified β-glucosidase from Candida peltata Y-21603; experiment: Inhibition by glucose, cellobiose and other sugars; inhibitors and activators (pNPβG hydrolysis assay); type: biochemical
Description: FIG. 4. […] Reaction time was 15 min at pH 5.0 and 50° C. Enzyme used, 39 mU/ml. pNPβG used: .smallcircle., 0.4 mM; .circle-solid., 0.8 mM; .tangle-solidup., 1.2 mM; Δ, 1.6 mM; .quadrature., 2.0 mM; .box-solid., 2.4 mM.
After incubation at 50° C. for 30 min, the reaction was stopped by adding ice-cold 0.5M Na2 CO3 (1 ml) and the color developed as a result of p-nitrophenol (pNP) liberation was measured at 405 nm.
Inhibition by glucose cellobiose and other sugars. The study of inhibition by glucose was performed with pNPβG as substrate.
Inhibitors and activators.

Candida peltata Y-21603 = experiment: Growth and β-glucosidase production on various carbon sources; type: cell-based; details: 28° C., 4 days
Description: Yeast strain, medium and culture conditions. The yeast strain (C. peltata NRRL Y-21603, also available as NRRL Y-6888) used in this study was obtained from the ARS culture collection, NCAUR, Peoria, Ill. The medium ([…] et al., 1982, Biotechnol. […] Solution A was a trace mineral solution having the following ingredients (per L): 1.1 g CaO, 0.4 g ZnO, 5.4 g FeCl3 ·6H2 O, 0.25 g CuSO4.5H2 O, 0.24 g CoCl2.6H2 O, 0.06 g H3 BO3 and 13 ml concentrated HCl. Solution B (per L) was composed of 10.1 g MgO and 45 ml concentrated HCl. Solution C (per L) contained 64 g urea, 12 g KH2 PO4, and 1.8 g Na2 HPO4. Substrates were sterilized separately. […] After 4 days, the cells were removed from the culture broth by centrifugation (18,000×g, 20 min). The resulting supernatant solution was used as the crude enzyme preparation. […] Analytical methods. […] Glucose was a good growth substrate for production of β-glucosidase.

[2] = tested on: purified β-glucosidase from Candida peltata Y-21603; experiment: Substrate specificity and kinetic analysis (Lineweaver-Burk); type: biochemical; details: for Vmax / Km: pH 5.0 and 50° C.; for Km: read-out: apparent Km; for relative rate of hydrolysis, of that of pNPβG: aryl-glycosides; for activity on substrate (relative rate of hydrolysis): disaccharides
Text: Substrate specificity and kinetic analysis. Relative rates of hydrolysis of various substrates by the purified β-glucosidase were studied. The enzyme could hydrolyze pNPβG and cellobiose effectively. Salicin was hydrolyzed at 34% of that of cellobiose. The purified enzyme had very little (<5%) or no activity on lactose, maltose, sucrose and trehalose. It also had no or very little activity on p-nitrophenyl-α-D-glucoside, p-nitrophenyl-β-D-xyloside, p-nitrophenyl-β-D-cellobioside, p-nitrophenyl-α-L-arabinofuranoside, and p-nitrophenyl-β-D-glucuronide (<5%). p-Nitrophenyl-β-D-galactoside was hydrolyzed at 6% of that of pNPβG. The reaction kinetics of the purified enzyme were determined from Lineweaver-Burk plots using pNPβG and cellooligosaccharides (cellobiose to cellohexaose) as substrates under optimal conditions (pH 5.0 and 50° C.).

[3] = tested on: purified β-glucosidase from Candida peltata Y-21603; experiment: Inhibition by glucose, cellobiose and other sugars; inhibitors and activators (pNPβG hydrolysis assay); type: biochemical; remark: listed apart in the source

## [Mg+2] [Mg^2+]
[1]; 5 mM
  dependence of enzyme activity on metal ion: not dependent

## OC[C@H]1O[C@@H](O[C@H]2[C@H](O)[C@@H](O)C(O)O[C@@H]2CO)[C@H](O)[C@@H](O)[C@@H]1O (stereo partly drawn) [Cellobiose, cellobiose]
Candida peltata Y-21603; carbon source 1% w/v
  Growth (A660): 8.7
[2]
  Vmax: 75 μmol.min^-1.mg^-1 protein
  Km: 66 mM
[3]; 15% cellobiose
  substrate inhibition: no inhibition; also recorded: not observed at all; also recorded: not inhibited at all

## OC[C@H]1OC(O)[C@H](O)[C@@H](O)[C@H]1O (stereo partly drawn) [Galactose]
[1]; sugar at 56 mM
  inhibition of β-glucosidase activity: did not inhibit

## O=[N+]([O-])c1ccc(O[C@@H]2O[C@H](CO)[C@@H](O[C@@H]3O[C@H](CO)[C@@H](O)[C@H](O)[C@H]3O)[C@H](O)[C@H]2O)cc1 [p-nitrophenyl-β-D-cellobioside]
[2]; purified enzyme
  relative rate of hydrolysis, of that of pNPβG: < 5%

## OC[C@H]1O[C@H](O[C@H]2O[C@H](CO)[C@@H](O)[C@H](O)[C@H]2O)[C@H](O)[C@@H](O)[C@@H]1O [trehalose]
[2]; purified enzyme
  activity on substrate (relative rate of hydrolysis): < 5%

## OC[C@H]1O[C@@H](O[C@H]2[C@H](O)[C@@H](O)[C@H](O[C@H]3[C@H](O)[C@@H](O)[C@H](O[C@H]4[C@H](O)[C@@H](O)[C@H](O[C@H]5[C@H](O)[C@@H](O)C(O)O[C@@H]5CO)O[C@@H]4CO)O[C@@H]3CO)O[C@@H]2CO)[C@H](O)[C@@H](O)[C@@H]1O (stereo partly drawn) [cellopentaose]
[2]
  Vmax: 8 μmol.min^-1.mg^-1 protein
  Km: 21 mM

## OC[C@H]1O[C@@](CO)(O[C@H]2O[C@H](CO)[C@@H](O)[C@H](O)[C@H]2O)[C@@H](O)[C@@H]1O [Sucrose, sucrose]
Candida peltata Y-21603; carbon source 1% w/v
  Growth (A660): 9.0
[2]; purified enzyme
  activity on substrate (relative rate of hydrolysis): < 5%
[1]; sugar at 29 mM
  inhibition of β-glucosidase activity: did not inhibit

## [Co+2] [Co^2+]
[1]; 0.5 mM
  dependence of enzyme activity on metal ion: not dependent

## OC[C@H]1O[C@H](O[C@H]2[C@H](O)[C@@H](O)[C@H](O)O[C@@H]2CO)[C@H](O)[C@@H](O)[C@@H]1O [Maltose, maltose]
Candida peltata Y-21603; carbon source 1% w/v
  Growth (A660): 9.3
[2]; purified enzyme
  activity on substrate (relative rate of hydrolysis): < 5%

## O=C[C@H](O)[C@@H](O)[C@@H](O)CO [L-Arabinose]
Candida peltata Y-21603; carbon source 1% w/v
  Growth (A660): 9.4

## O=[N+]([O-])c1ccc(O[C@@H]2OC[C@@H](O)[C@H](O)[C@H]2O)cc1 [p-nitrophenyl-β-D-xyloside]
[2]; purified enzyme
  relative rate of hydrolysis, of that of pNPβG: < 5%

## O=C(CO)[C@@H](O)[C@H](O)[C@H](O)CO [fructose]
[1]; sugar at 56 mM
  inhibition of β-glucosidase activity: did not inhibit

## arabinose
[1]; sugar at 56 mM
  inhibition of β-glucosidase activity: did not inhibit

## [Mn+2] [Mn^2+]
[1]; 5 mM
  dependence of enzyme activity on metal ion: not dependent

## [Ca+2] [Ca^2+]
[1]; 5 mM
  dependence of enzyme activity on metal ion: not dependent

## OC[C@H]1OC(O)[C@H](O)[C@@H](O)[C@@H]1O (stereo partly drawn) [Glucose, glucose]
Candida peltata Y-21603; carbon source 1% w/v
  Growth (A660): 10.7
Candida peltata Y-21603; carbon source 2% w/v
  Growth (A660): 13.7
Candida peltata Y-21603; carbon source 4% w/v
  Growth (A660): 13.3
Candida peltata Y-21603; carbon source 8% w/v
  Growth (A660): 9.7
Candida peltata Y-21603; carbon source 12% w/v
  Growth (A660): 7.9
Candida peltata Y-21603; carbon source 20% w/v
  Growth (A660): 7.3

## OC[C@H]1O[C@@H](O[C@H]2[C@H](O)[C@@H](O)[C@H](O[C@H]3[C@H](O)[C@@H](O)[C@H](O[C@H]4[C@H](O)[C@@H](O)C(O)O[C@@H]4CO)O[C@@H]3CO)O[C@@H]2CO)[C@H](O)[C@@H](O)[C@@H]1O (stereo partly drawn) [cellotetraose]
[2]
  Vmax: 16 μmol.min^-1.mg^-1 protein
  Km: 35 mM

## O=[N+]([O-])c1ccc(O[C@@H]2O[C@H](CO)[C@H](O)[C@H](O)[C@H]2O)cc1 [p-Nitrophenyl-β-D-galactoside]
[2]; purified enzyme
  relative rate of hydrolysis, of that of pNPβG: 6%

## O=C(O)[C@H]1O[C@@H](Oc2ccc([N+](=O)[O-])cc2)[C@H](O)[C@@H](O)[C@@H]1O [p-nitrophenyl-β-D-glucuronide]
[2]; purified enzyme
  relative rate of hydrolysis, of that of pNPβG: < 5%

## O=[N+]([O-])c1ccc(O[C@@H]2O[C@H](CO)[C@@H](O)[C@H](O)[C@H]2O)cc1 [pNPβG, p-nitrophenyl β-D-glucoside]
[2]
  Vmax: 221 μmol.min^-1.mg^-1 protein
  Km: 2.3 mM
[3]; 40 mM pNPβG
  substrate inhibition: not observed at all; also recorded: not inhibited at all

## O[C@H](CS)[C@H](O)CS (racemic) [DTT, dithiothreitol]
[1]; 10 mM
  effect on enzyme activity: not affected

## OC[C@H]1O[C@@H](O[C@H]2[C@H](O)[C@@H](O)[C@H](O[C@H]3[C@H](O)[C@@H](O)[C@H](O[C@H]4[C@H](O)[C@@H](O)[C@H](O[C@H]5[C@H](O)[C@@H](O)[C@H](O[C@H]6[C@H](O)[C@@H](O)C(O)O[C@@H]6CO)O[C@@H]5CO)O[C@@H]4CO)O[C@@H]3CO)O[C@@H]2CO)[C@H](O)[C@@H](O)[C@@H]1O (stereo partly drawn) [cellohexaose]
[2]
  Vmax: 5 μmol.min^-1.mg^-1 protein
  Km: 18 mM

## O=C(O)c1cc[c]([Hg][Cl])cc1 [pCMB, p-chloromercuribenzoic acid]
[1]; 0.2 mM
  effect on enzyme activity: not affected; also recorded: unaffected

## O=[N+]([O-])c1ccc(O[C@H]2O[C@H](CO)[C@@H](O)[C@H](O)[C@H]2O)cc1 [p-nitrophenyl-α-D-glucoside]
[2]; purified enzyme
  relative rate of hydrolysis, of that of pNPβG: < 5%

## OC[C@H]1O[C@@H](O[C@H]2[C@H](O)[C@@H](O)[C@H](O[C@H]3[C@H](O)[C@@H](O)C(O)O[C@@H]3CO)O[C@@H]2CO)[C@H](O)[C@@H](O)[C@@H]1O (stereo partly drawn) [cellotriose]
[2]
  Vmax: 32 μmol.min^-1.mg^-1 protein
  Km: 39 mM

## OCc1ccccc1O[C@@H]1O[C@H](CO)[C@@H](O)[C@H](O)[C@H]1O [Salicin]
[2]; purified enzyme
  relative rate of hydrolysis, of that of cellobiose: 34%

## OC[C@H]1O[C@@H](O[C@H]2[C@H](O)[C@@H](O)C(O)O[C@@H]2CO)[C@H](O)[C@@H](O)[C@H]1O (stereo partly drawn) [Lactose, lactose]
Candida peltata Y-21603; carbon source 1% w/v
  Growth (A660): 2.5
[2]; purified enzyme
  activity on substrate (relative rate of hydrolysis): < 5%
[1]; sugar at 29 mM
  inhibition of β-glucosidase activity: did not inhibit

## OC1OC[C@@H](O)[C@H](O)[C@H]1O (stereo partly drawn) [Xylose, xylose]
Candida peltata Y-21603; carbon source 1% w/v
  Growth (A660): 11.3
[1]; sugar at 56 mM
  inhibition of β-glucosidase activity: did not inhibit

## OC[C@H]1OC(O)[C@@H](O)[C@@H](O)[C@@H]1O (stereo partly drawn) [mannose]
[1]; sugar at 56 mM
  inhibition of β-glucosidase activity: did not inhibit

## O=[N+]([O-])c1ccc(O[C@@H]2O[C@@H](CO)[C@H](O)[C@H]2O)cc1 [p-nitrophenyl-α-L-arabinofuranoside]
[2]; purified enzyme
  relative rate of hydrolysis, of that of pNPβG: < 5%

## CCO [ethanol]
[1]; 0.75% (v/v) ethanol, pH 5.0, 50° C., 30 min reaction
  increase of pNPβG hydrolysis (initial activity): 11%
